Consider four molecules from PMC6095690, “Coalescing beneficial host and deleterious antiparasitic actions as an antischistosomal strategy” (eLife, 2018).

The test system of one data set is human 5-HT2B receptor. Further details: method as in Chan et al., 2017. Particulars: contracts host mesenteric vessels; ref Chan et al., 2017; cited from earlier work.
Data set [1] relates to forskolin evoked cAMP production in HEK293 cells lacking Sm.5HTRL. The data set is described as follows: counter-screen of antagonist hits: forskolin evoked cAMP production in parental reporter line. It is filed as cell-based.
Data set [2] deals with T1, Sm.5HTRL (Schistosoma mansoni, UniProt A0A173FEI8).
T1 sequence (A0A173FEI8 1-547): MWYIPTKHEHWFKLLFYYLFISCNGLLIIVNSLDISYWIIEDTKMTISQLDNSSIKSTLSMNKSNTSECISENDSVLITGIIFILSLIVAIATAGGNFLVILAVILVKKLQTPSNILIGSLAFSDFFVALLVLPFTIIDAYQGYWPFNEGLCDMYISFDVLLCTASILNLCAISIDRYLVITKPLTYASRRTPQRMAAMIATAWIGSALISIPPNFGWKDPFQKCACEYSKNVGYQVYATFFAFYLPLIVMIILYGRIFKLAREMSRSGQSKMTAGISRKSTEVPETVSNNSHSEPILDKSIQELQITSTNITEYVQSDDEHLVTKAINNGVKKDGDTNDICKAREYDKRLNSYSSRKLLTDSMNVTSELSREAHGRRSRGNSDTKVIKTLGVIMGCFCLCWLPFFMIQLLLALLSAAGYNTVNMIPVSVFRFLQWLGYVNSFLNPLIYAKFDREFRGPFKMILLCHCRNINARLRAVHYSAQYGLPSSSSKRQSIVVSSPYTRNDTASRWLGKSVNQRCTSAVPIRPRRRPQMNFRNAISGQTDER
The next data set concerns liver signaling pathways. The data set is described as follows: Ingenuity Pathway Analysis of transcripts differentially expressed in drug treated livers relative to control infections. The format is in vivo, mouse.
The test system of data set [3] is immature S. mansoni (infection in mice). In words: curative efficacy against immature infection in mice (dosing weeks 3-4 post infection). Particulars: dosing 3–4 weeks post infection, worm burden at 7 weeks; ERG 60 mg/kg, PZQ 50 mg/kg.
The subject of data set [4] is S. mansoni (mature infection in Swiss Webster mice). In words: curative efficacy against mature infection in mice (survival, worm burden, egg counts, organ weights). Particulars: for reduction in intestinal egg burden: ergotamine 60 mg/kg twice daily or PZQ 50 mg/kg, 42–49 days p.i.; for effect on hepatosplenomegaly: one week treatment starting at 42 days p.i.
Another data set concerns the target Sh.5HTR (Schistosoma haematobium, UniProt A0A922S615). The format is cell-based. The following applies: HEK293; maximal cAMP response relative to 5-HT.
The target in a further data set is Sj.5HTR (Schistosoma japonicum, UniProt A0A346LTY2). In words: cell-based. The following applies: HEK293.
Chain of Sj.5HTR (A0A346LTY2 entry or part of it): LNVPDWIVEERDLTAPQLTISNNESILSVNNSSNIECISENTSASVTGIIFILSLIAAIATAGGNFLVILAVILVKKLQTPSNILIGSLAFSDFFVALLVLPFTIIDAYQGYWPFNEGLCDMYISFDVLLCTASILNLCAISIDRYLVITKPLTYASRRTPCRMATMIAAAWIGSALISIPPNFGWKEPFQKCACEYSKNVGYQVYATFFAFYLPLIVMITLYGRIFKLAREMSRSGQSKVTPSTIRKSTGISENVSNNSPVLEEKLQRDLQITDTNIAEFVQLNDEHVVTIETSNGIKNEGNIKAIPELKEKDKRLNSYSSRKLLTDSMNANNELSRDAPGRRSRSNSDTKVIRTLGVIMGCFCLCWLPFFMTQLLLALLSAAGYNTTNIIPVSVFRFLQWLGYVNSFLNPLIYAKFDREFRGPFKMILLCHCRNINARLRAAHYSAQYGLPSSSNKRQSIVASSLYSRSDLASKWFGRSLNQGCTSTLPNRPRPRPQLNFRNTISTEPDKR
The subject of data set [5] is adult S. mansoni parasites. The data set is described as follows: adult worm movement assay ex vivo. Set-up: species or system Schistosoma mansoni. Particulars: Schistosoma mansoni; ex vivo, ± 95% confidence interval; read-out: EC50 for stimulation of adult schistosome movement.
Another data set concerns immature S. mansoni. The data set is described as follows: movement of immature worms harvested 4 weeks post infection, ex vivo. The following applies: male worms 4 weeks post infection. Set-up: species or system Schistosoma mansoni. The text has this:
Figure 6. […] Figure 6—figure supplement 1. […] Scale = 50 µm. [drawing 7]

The target in data set [6] is T1, Sm.5HTRL. The data set is described as follows: cell-based. Particulars: HEK293.
Data set [7] concerns S. mansoni (mature infection in Swiss Webster mice). In words: hepatic shift assay in infected mice. Particulars: intraperitoneal, sacrificed three hours later; dose not given.
Data set [8] has as its system adult S. mansoni male and female pairs. In words: egg laying assay of worm pairs cultured ex vivo. Particulars: 1 µM.
For data set [9], the system named is liver of S. mansoni infected mice. In words: liver histology and immunohistochemistry of infected drug treated mice. The following applies: ergotamine 60 mg/kg.

As to `O=C(C1CCCCC1)N1CC(=O)N2CCc3ccccc3[C@@H]2C1` [R-PZQ], the “type of activity at human 5-HT2B receptor” value in the data set on human 5-HT2B receptor was “partial agonist”.

In the case of `C[C@@H]1CC[C@@]2(OC1)O[C@H]1[C@@H](O)[C@H]3[C@@H]4CC[C@H]5C[C@@H](O[C@@H]6O[C@H](CO)[C@H](O[C@@H]7O[C@H](CO)C(O)[C@H](O[C@@H]8OC[C@@H](O)[C@H](O)[C@H]8O)[C@H]7O[C@@H]7O[C@H](CO)[C@H](O)[C@H](O[C@@H]8O[C@H](CO)[C@@H](O)[C@H](O)[C@H]8O)[C@H]7O)[C@H](O)[C@H]6O)[C@H](O)C[C@]5(C)[C@H]4CC[C@]3(C)[C@H]1[C@@H]2C` (stereo partly shown) [ST069321], the “(-) Sm.5HTR Forskolin response (% of DMSO)” value in data set [1] is listed as 0.15 % of DMSO. The “(+) Sm.5HTR 5-HT response (% of DMSO)” value at Sm.5HTRL [2] was 0.1068 % of DMSO.

Take `O=C(C1CCCCC1)N1CC(=O)N2CCc3ccccc3C2C1` (stereo not shown) [PZQ, praziquantel]: in the data set on liver signaling pathways, the “effect on gene products associated with HSC activation” value was “little to no effect”. Further, the “effect on immature infection” value in [3] was “lack of effect”. For the same molecule, in [4] (PZQ 50 mg/kg for one week from 42 days p.i.), the “lethality through 15 weeks” value is recorded as “no observed lethality”. In data set [4], the “reduction in intestinal egg burden” value was determined as 99.9 ± 0.1%; the “effect on hepatosplenomegaly” value is “did not prevent spleen and liver enlargement”.

As a reminder, the Emax is the maximal effect, on the per cent scale that the assay sets. The term EC50 denotes the midpoint of the concentration-response curve. As to `CN1C[C@H](C(=O)N[C@]2(C)O[C@@]3(O)[C@@H]4CCCN4C(=O)[C@H](Cc4ccccc4)N3C2=O)C=C2c3cccc4[nH]cc(c34)C[C@H]21` [ergotamine, Ergotamine], the maximal response (Emax) on Sh.5HTR is 96 ± 5%; on Sj.5HTR, 114 ± 3%; at Sm.5HTRL [6], 95 ± 4%. Further, the EC50 in data set [5] was determined as 97.8 ± 31.6 nM. For the same molecule, in the data set with immature S. mansoni, the “effect on movement of juvenile worms” value is on record as “stimulated movement of juvenile worms”. Moreover, the “effect on gene products associated with HSC activation” value in the data set with liver signaling pathways is “down-regulated gene products associated with HSC activation”. The “type of activity at schistosome 5-HTRs” value on Sm.5HTRL [2] is given as “full agonists”. Moreover, in [7], the “percentage of worms in the liver” value is listed as 75.1 ± 16.9%. Besides, the “morphology of eggs laid by treated worms” value in [8] was “often small and deformed”. Moreover, the “granuloma formation and fibrosis in liver sections” value in data set [9] is “decreased granuloma formation and fibrosis”. Moreover, the “hepatic microvesicular steatosis / microvascular damage” value in data set [9] (H and E staining) is on record as “not observed”. The “effect on immature infection” value in data set [3] is given as “did not resolve infections”. The same molecule came in with a worm burden in data set [4] (60 mg/kg twice daily 42–49 days p.i., control 28 ± 8) of 9 ± 6 worm pairs per mouse. Also, the “reduction of worm burden” value in data set [4] (60 mg/kg twice daily 42–49 days p.i., p<0.002) was ~ 65%. Besides, the “reduction of infection-promoted increase in spleen mass” value in data set [4] (60 mg/kg twice daily 42–49 days p.i., relative to vehicle treated controls) is listed as 55.8 ± 14.0%. Further, the “reduction in intestinal egg burden” value in data set [4] is 96.3 ± 1.2%. Also, the “effect on hepatosplenomegaly” value in [4] is recorded as “prevented hepatosplenomegaly”.
